Test results from patent US20110239332A1, “PROPAGATION OF SWITCHGRASS AND MISCANTHUS” (priority 2008, published 2011).

What was measured:
switchgrass shoots [1] = conditions: 8 weeks (12 weeks to plant), 29° C., BAP as only plant hormone; cited from earlier work
switchgrass shoots [2] = assay: In vitro shoot multiplication of switchgrass in culture media; type: cell-based, Panicum virgatum L.
Protocol: A drawback of the use of known propagation conditions is a limited shoot multiplication rate. […] Alexandrova described how to multiply up to 500 shoots from one plant in 8 weeks (12 weeks to plant) at 29° C. and used only one plant hormone Benzylaminopurine (BAP) for multiplication of switchgrass shoots (Alexandrova et al. 1996). However, it has been discovered that 31° C. is a preferable temperature for multiplication of switchgrass shoots. It has also been discovered that liquid medium is preferable for increased multiplication. Applicants optimized multiplication of Switchgrass shoots with a combination of several plant hormones Benzylaminopurine+Naphthaleneacetic acid+Thidiazuron+Paclobutrazol (BAP+NAA+TDZ+PBZ).
It was discovered that an increase in the amount of 6 micro-elements restored growth to shoots and prevented shoot death and, in particular, an increase in the amount of CuSO4.7H2O added to the media increased multiplication rates increased up to about 7× every 3 weeks. MS media contains 0.025 mg/L CuSO4.7H2O. An increase of up to about 10× every 3 weeks in multiplication rate was achieved when shoots were broken apart every 2-3 weeks. […]

Miscanthus shoots = assay: In vitro shoot multiplication of Miscanthus in culture media; type: cell-based, Miscanthus × giganteus; conditions: high TDZ (1.65 mg/L) compared with about 0.25 mg/L TDZ, media at 31° C.
Protocol: In propagating Miscanthus stem nodes in culture media, Nielsen used high amounts of Thidiazuron (TDZ) (1.65 mg/L), which is a cost limiting hormone additive in shoot multiplication growth media (Nielsen et. al. 1993; Nielsen et. al. 1995).
Stems of actively growing Miscanthus × giganteus having dormant nodes were harvested and sterilized using 1.5% sodium hypochlorite (25% bleach) solution followed by three rinses using sterile water. Stem segments comprising nodes were cut to 3 cm long and then cut longitudinally down the center of the each stem. The prepared stem portions were then placed under growth conditions of 50 μE of light and a 16 h day. The temperature was 31° C. Stem segments were grown in […] Petri plates for solid culture, however any suitable sterile container can be used for solid or liquid culture. Time between sub-culturing was 14-21 days. Shoots were cut to 3-4 cm in length when sub-culturing.
The media used for the above-described growth conditions comprised MS medium plus vitamins (full strength) (Phytotechnologies™ Product ID-M519), 30 g/L sucrose (87.7 mM), […] MgCl2 (750 mg/L of MgCl2.6H2O), pH 5.6 for semi-solid media, […], and 6 g/L agar. The following hormones were added after autoclaving of the media. […]

## c1ccc(CNc2ncnc3[nH]cnc23)cc1 [BAP, Benzylaminopurine]
Switchgrass shoots [1]
  shoots multiplied from one plant: up to 500 shoots

## O.O.O.O.O.O.O.O=S(=O)([O-])[O-].[Cu+2] [CuSO4.7H2O]
Switchgrass shoots [2]; increased CuSO4.7H2O, shoots broken apart every 2-3 weeks
  shoot multiplication rate: about 10 × every 3 weeks
Switchgrass shoots [2]; increased amount of CuSO4.7H2O added to the media (MS media contains 0.025 mg/L)
  shoot multiplication rate: about 7 × every 3 weeks

## O=C(Nc1ccccc1)Nc1cnns1 [TDZ, Thidiazuron]
Miscanthus shoots
  shoot thickness and shoot production: multiplied shoots were thinner and shoot production was less
